Measured values as given in ChEMBL document CHEMBL1201862, “PubChem BioAssay data set” (2004).
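Cultured in 96-well plates, cells were exposed to test compound for 48 hours across five concentrations. GI50 marks 50% less growth.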 Activity calls are given as the source filed them. Cut-off read from the data, not from the text of the source: active = GI50 up to about 1.1 µM and inactive = higher.

What was measured:
Assay in all cases: growth of human tumour cells (NCI), 48 h
[1] = test system: DLD-1
[2] = test system: DMS-114
[3] = test system: DMS-273
[4] = test system: HOP-18
[5] = test system: KM-20L2
[6] = test system: LXFL 529
[7] = test system: RXF 631
[8] = test system: SNB-78
[9] = test system: XF498

Measured: GI50

CN(C)c1ccc(/C=C2\N=C(c3ccc(N)cc3)OC2=O)cc1
inactive: [1] > 100 µM | [2] > 100 µM | [3] > 100 µM | [4] > 100 µM | [5] > 100 µM | [6] > 100 µM | [7] > 100 µM | [8] > 100 µM | [9] > 100 µM

CCOC(=O)NC1C2CC(=O)C(O2)C1OCc1ccccc1 (stereo not drawn)
inactive: [1] > 100 µM | [2] > 100 µM | [3] > 100 µM | [4] > 100 µM | [5] > 100 µM | [6] > 100 µM | [7] > 100 µM | [8] > 100 µM | [9] > 100 µM

COC(=O)C(CC(=O)c1ccccc1)c1ccccc1NC(C)=O (stereo not drawn)
inactive: [1] > 100 µM | [2] > 100 µM | [4] > 100 µM | [5] > 100 µM | [6] > 100 µM | [7] > 100 µM | [8] > 100 µM | [9] > 100 µM

COc1ccc2nc(C(=O)c3ccccc3)c(C)cc2c1
inactive: [1] 4.84 µM | [2] 3.22 µM | [3] 3.08 µM | [4] > 26.9 µM | [5] 3.18 µM | [6] 9.25 µM | [7] 8.18 µM | [8] 13.2 µM | [9] 3.68 µM

CC(=O)NNc1nc(C)c(C(=O)NNC(=O)C(=O)Nc2nc3ccc([N+](=O)[O-])cc3s2)s1
inactive: [1] 46.1 µM | [2] 24.4 µM | [3] 62.4 µM | [5] > 100 µM | [6] 49.9 µM | [7] 41.6 µM | [8] 69.5 µM | [9] 25 µM

N#CC(C(=O)CCC(=O)Nc1ccc(Cl)cc1)c1ccccc1Cl (stereo not drawn)
inactive: [1] 74.1 µM | [2] > 100 µM | [3] > 100 µM | [5] 17.1 µM | [6] 13.4 µM | [7] > 100 µM | [8] > 100 µM | [9] > 100 µM

C=CCOCCCC(=O)C(=[N+]=[N-])C(=O)OC
inactive: [1] > 100 µM | [4] > 100 µM | [5] > 100 µM | [6] > 100 µM | [7] > 100 µM | [8] > 100 µM | [9] > 100 µM

CCOc1ccccc1NC(=O)CC(C(=O)OC)C(=O)C(=O)OC (stereo not drawn)
inactive: [2] > 100 µM | [3] > 100 µM | [4] > 100 µM | [5] > 100 µM | [6] > 100 µM | [7] > 100 µM | [8] > 100 µM

C=C1C(=O)OC2CC(C)C3C=CC(=O)C3CC12 (stereo not drawn)
inactive: [2] 2.44 µM | [3] 3.54 µM | [4] 5.77 µM | [5] 3.52 µM | [6] 1.26 µM | [7] 3.88 µM | [8] 3.42 µM | [9] 1.63 µM

CCOC(=O)CNC(=O)c1nc[nH]c1/N=N/N(C)C
inactive: [1] > 100 µM | [2] > 100 µM | [3] > 100 µM | [6] > 100 µM

CCN(CC)CCC(=O)/C=C/c1ccc(C)cc1
inactive: [1] 6.17 µM | [2] 11.3 µM | [3] 11.2 µM | [4] 17.6 µM | [5] 15.6 µM | [6] 7.67 µM | [7] 16.4 µM | [8] 23.5 µM | [9] 12.4 µM

Cc1cccc2c3ccc4c(c3n(C)c12)C(=O)C=CC4=O
inactive: [1] > 100 µM | [2] 41.1 µM | [3] 76 µM | [6] > 100 µM | [7] > 100 µM | [8] > 100 µM

C[Si](C)(C)CC(N)=O
inactive: [1] > 100 µM | [2] > 100 µM | [3] > 100 µM | [4] > 100 µM | [5] > 100 µM | [6] > 100 µM | [7] > 100 µM | [8] > 100 µM | [9] > 100 µM

CCCCCCCCCCCCOC(=S)NC
inactive: [1] 17.1 µM | [2] 20.8 µM | [3] 19.5 µM | [4] 19 µM | [5] 19.4 µM | [6] 17 µM | [8] 27.8 µM | [9] 20 µM

C(=C\c1cc(CCc2nc3ccccc3[nH]2)n[nH]1)/c1ccccc1
inactive: [1] > 100 µM | [2] > 100 µM | [4] > 100 µM | [5] > 100 µM | [7] > 100 µM | [9] > 100 µM

COc1cc2c(cc1OC)C1[C@@H](c3ccccc3)OCN1CC2 (stereo partly drawn)
inactive: [1] > 86.9 µM | [2] 88.1 µM | [3] > 100 µM | [4] > 100 µM | [5] > 100 µM | [6] > 100 µM | [7] > 100 µM | [8] > 73.1 µM | [9] > 100 µM

COc1ccc(N2C(=O)C3c4[nH]c5ccccc5c4C4CCCCC4C3C2=O)cc1 (stereo not drawn)
inactive: [1] 49 µM | [2] 8.63 µM | [3] 6.75 µM | [4] 22.4 µM | [5] 39.4 µM | [6] 22.2 µM | [8] 2.29 µM

CC(=O)NNc1nc(C)c(C(=O)/C=C/c2ccc(NC(C)=O)cc2)s1
inactive: [1] > 100 µM | [3] > 100 µM | [4] > 100 µM | [5] > 100 µM | [7] > 100 µM | [8] > 100 µM

COc1ccc(OC)c2c(C(=O)O)c(Cc3ccccc3)ccc12
inactive: [1] > 100 µM | [2] > 100 µM | [3] > 100 µM | [4] > 100 µM | [5] > 100 µM | [6] > 100 µM | [9] > 100 µM

CC(=O)Nc1ccc(/C=c2\sc3nnc(CCC(=O)Nc4ccccc4Cl)n3c2=O)cc1
inactive: [1] 32.4 µM | [2] 55.5 µM | [4] 52.8 µM | [6] 30 µM | [7] 32.9 µM | [8] 47.3 µM | [9] 25.1 µM

CC1(C)OC2COC3(CNO)OC(C)(C)OC3C2O1 (stereo not drawn)
inactive: [1] > 100 µM | [2] > 100 µM | [3] > 100 µM | [4] > 100 µM | [8] > 100 µM

[O-][S+]1c2ccccc2NC(c2ccc3ccccc3c2)CC1c1ccccc1 (stereo not drawn)
inactive: [1] 23.3 µM | [3] 29.5 µM | [4] > 100 µM | [5] 22.9 µM | [6] 15.7 µM | [9] 19.1 µM

O=S(=O)(SCc1ccccc1)C(c1ccccc1)c1ccccc1
inactive: [1] 13.2 µM | [2] 19.3 µM | [3] 27.4 µM | [5] 20.6 µM | [6] 26.5 µM | [8] 30.5 µM | [9] 58.1 µM

COc1nc2c(nc(N)n2C2OC(CO)C(O)C(O)C2O)c(=O)[nH]1 (stereo not drawn)
inactive: [1] > 100 µM | [4] > 100 µM | [5] > 100 µM | [6] > 100 µM | [8] > 100 µM | [9] > 100 µM

CCCC(=O)c1c(NOC2OCC(OC(C)=O)C(OC(C)=O)C2OC(C)=O)nc(OC)n(C)c1=O (stereo not drawn)
inactive: [1] > 100 µM | [2] > 100 µM | [3] > 100 µM | [4] > 100 µM | [5] > 100 µM | [6] > 100 µM | [7] > 100 µM | [9] > 100 µM
